In ChEMBL document CHEMBL1128323, “Antifungal agents. 9. 3-Aryl-4-[alpha-(1H-imidazol-1-yl)arylmethyl]pyrroles: a new class of potent anti-Candida agents” (1995):
≈ marks a conversion by molar mass, not a printed value.

What was measured:
Assay type in all cases: functional
[1] = tested on: Candida; assay: 50% inhibitory activity against the Candida. species (40 clinical isolates) was determined at pH-7.2
[2] = tested on: Candida albicans; assay: Percent resistance against Candida albicans (40 clinical isolates) at 256 micro g/mL (pH=5.8), activity is expressed as R%.
[3] = tested on: Candida; assay: 90% inhibitory activity against Candida. species (40 clinical isolates) determined at pH-7.2
[4] = tested on: Candida albicans; assay: Inhibitory activity against Candida albicans (40 clinical isolates), determined at pH-7.2
[5] = tested on: Candida albicans; assay: Inhibitory activity against the Candida albicans (40 clinical isolates), determined at pH-5.8
[6] = tested on: Candida albicans; assay: Resistance against Candida. albicans (40 clinical isolates) at 256 ug/mL (pH=7.2), activity is expressed as R%.
[7] = tested on: Candida; assay: Inhibitory activity against Candida. species (40 clinical isolates), determined at pH-5.8
[8] = tested on: Candida albicans; assay: Inhibitory activity against the Candida albicans (40 clinical isolates), determined at pH-7.2
[9] = tested on: Candida albicans; assay: Inhibitory activity against Candida albicans (40 clinical isolates), determined at pH-5.8
[10] = tested on: Candida albicans; assay: 50% inhibitory activity against Candida albicans (40 clinical isolates) determined at pH-7.2; settings: Candida albicans; read-out: MIC50
[11] = tested on: Candida; assay: Resistance against all Candida. species (40 clinical isolates) at 256 micro g/mL (pH=5.8). Activity is expressed as R%.
[12] = tested on: Candida; assay: Inhibitory activity against Candida. species. (40 clinical isolates), determined at pH-7.2
[13] = tested on: Candida; assay: Percent resistance against all Candida. species (40 clinical isolates) at 256 micro g/mL (pH=7.2), activity is expressed as R%.
[14] = tested on: Candida albicans; assay: 50% inhibitory activity against Candida albicans (40 clinical isolates) determined at pH-5.8
[15] = tested on: Candida; assay: Inhibitory activity against Candida. species. (40 clinical isolates), determined at pH-5.8

Row | SMILES | MIC50 [1] [µg/mL] | R [2] [%] | MIC90 [3] [µg/mL] | MIC [4] [µg/mL] | MIC90 [5] [µg/mL] | R [6] [%] | MIC50 [7] [µg/mL] | MIC90 [7] [µg/mL] | MIC90 [8] [µg/mL] | MIC [9] [µg/mL] | MIC50 [10] [µg/mL] | R [11] [%] | MIC [12] [µg/mL] | R [13] [%] | MIC50 [14] [µg/mL] | MIC [15] [µg/mL]
1 | Clc1ccccc1-c1c[nH]cc1C(c1ccc(-n2cccc2)cc1)n1ccnc1 (stereo not drawn) | 16 (≈ 40.1 µM) | 0 | 64 (≈ 160 µM) | 25.3 (≈ 63.4 µM) | 16 (≈ 40.1 µM) | 0 | 32 (≈ 80.2 µM) | 32 (≈ 80.2 µM) | 64 (≈ 160 µM) | 20.5 (≈ 51.4 µM) | 8 (≈ 20.1 µM) | 0 | 24.1 (≈ 60.4 µM) | 0 | 8 (≈ 20.1 µM) | 30.2 (≈ 75.7 µM)
2 | Clc1ccc(-c2c[nH]cc2C(c2ccc(Cl)c(Cl)c2)n2ccnc2)cc1Cl (stereo not drawn) | > 256 | 0 | > 256 | 14 (≈ 31.9 µM) | 32 (≈ 73.2 µM) | 0 | 256 (≈ 586 µM) | > 256 | 32 (≈ 73.2 µM) | 9.2 (≈ 21 µM) | 8 (≈ 18.3 µM) | 50 | > 309 | 50 | 8 (≈ 18.3 µM) | > 328
3 | Clc1ccc(-c2c[nH]cc2C(c2cccc3ccccc23)n2ccnc2)cc1 (stereo not drawn) | 16 (≈ 41.7 µM) | 0 | 32 (≈ 83.4 µM) | 10.1 (≈ 26.3 µM) | 16 (≈ 41.7 µM) | 0 | 8 (≈ 20.8 µM) | 32 (≈ 83.4 µM) | 16 (≈ 41.7 µM) | 11.2 (≈ 29.2 µM) | 1 (≈ 2.6 µM) | 0 | 29 (≈ 75.5 µM) | 0 | 4 (≈ 10.4 µM) | 16.6 (≈ 43.2 µM)
4 | Clc1ccc(C(c2c[nH]cc2-c2ccc(Cl)c(Cl)c2)n2ccnc2)c(Cl)c1 (stereo not drawn) | 32 (≈ 73.2 µM) | 0 | 32 (≈ 73.2 µM) | 5.8 (≈ 13.3 µM) | 16 (≈ 36.6 µM) | 0 | 32 (≈ 73.2 µM) | 32 (≈ 73.2 µM) | 16 (≈ 36.6 µM) | 5.9 (≈ 13.5 µM) | 2 (≈ 4.58 µM) | 0 | 38.2 (≈ 87.4 µM) | 0 | 2 (≈ 4.58 µM) | 27.7 (≈ 63.4 µM)
5 | Clc1ccc(-c2c[nH]cc2C(c2ccc(Cl)cc2Cl)n2ccnc2)c(Cl)c1 (stereo not drawn) | 256 (≈ 586 µM) | 0 | 256 (≈ 586 µM) | 20.6 (≈ 47.1 µM) | 16 (≈ 36.6 µM) | 0 | 32 (≈ 73.2 µM) | 32 (≈ 73.2 µM) | 16 (≈ 36.6 µM) | 7.4 (≈ 16.9 µM) | 8 (≈ 18.3 µM) | 0 | 101 (≈ 231 µM) | 0 | 2 (≈ 4.58 µM) | 23.4 (≈ 53.5 µM)
6 | Clc1ccc(C(c2c[nH]cc2-c2ccccc2Cl)n2ccnc2)cc1Cl (stereo not drawn) | 32 (≈ 79.5 µM) | 0 | 64 (≈ 159 µM) | 12.7 (≈ 31.5 µM) | 32 (≈ 79.5 µM) | 0 | 32 (≈ 79.5 µM) | 32 (≈ 79.5 µM) | 32 (≈ 79.5 µM) | 13.8 (≈ 34.3 µM) | 16 (≈ 39.7 µM) | 0 | 36.2 (≈ 89.9 µM) | 0 | 8 (≈ 19.9 µM) | 24.8 (≈ 61.6 µM)
7 | Clc1ccc(-c2c[nH]cc2C(c2ccc(Cl)c(Cl)c2)n2ccnc2)c(Cl)c1 (stereo not drawn) | 16 (≈ 36.6 µM) | 0 | 32 (≈ 73.2 µM) | 19.6 (≈ 44.8 µM) | 32 (≈ 73.2 µM) | 0 | 16 (≈ 36.6 µM) | 16 (≈ 36.6 µM) | 32 (≈ 73.2 µM) | 7.2 (≈ 16.5 µM) | 16 (≈ 36.6 µM) | 0 | 21.3 (≈ 48.7 µM) | 0 | 2 (≈ 4.58 µM) | 14.2 (≈ 32.5 µM)
8 | Fc1ccc(C(c2c[nH]cc2-c2ccc(Cl)cc2)n2ccnc2)cc1 (stereo not drawn) | 32 (≈ 91 µM) | 0 | 64 (≈ 182 µM) | 19.2 (≈ 54.6 µM) | 64 (≈ 182 µM) | 0 | 32 (≈ 91 µM) | 32 (≈ 91 µM) | 32 (≈ 91 µM) | 15.4 (≈ 43.8 µM) | 16 (≈ 45.5 µM) | 0 | 31.8 (≈ 90.4 µM) | 0 | 32 (≈ 91 µM) | 26.6 (≈ 75.6 µM)
9 | Cc1ccc(C(c2c[nH]cc2-c2ccc(Cl)cc2)n2ccnc2)cc1 (stereo not drawn) | 16 (≈ 46 µM) | 0 | 32 (≈ 92 µM) | 18.9 (≈ 54.3 µM) | 32 (≈ 92 µM) | 0 | 16 (≈ 46 µM) | 32 (≈ 92 µM) | 32 (≈ 92 µM) | 12.3 (≈ 35.4 µM) | 16 (≈ 46 µM) | 0 | 23.1 (≈ 66.4 µM) | 0 | 16 (≈ 46 µM) | 20.4 (≈ 58.6 µM)
10 | Clc1ccc(-c2c[nH]cc2C(c2ccccc2)n2ccnc2)c(Cl)c1 (stereo not drawn) | 16 (≈ 43.4 µM) | 0 | 32 (≈ 86.9 µM) | 5.4 (≈ 14.7 µM) | 16 (≈ 43.4 µM) | 0 | 32 (≈ 86.9 µM) | 32 (≈ 86.9 µM) | 16 (≈ 43.4 µM) | 8.4 (≈ 22.8 µM) | 2 (≈ 5.43 µM) | 0 | 16.6 (≈ 45.1 µM) | 0 | 4 (≈ 10.9 µM) | 23.5 (≈ 63.8 µM)
11 | O=[N+]([O-])c1ccc(C(c2c[nH]cc2-c2ccccc2Cl)n2ccnc2)cc1 (stereo not drawn) | 64 (≈ 169 µM) | 0 | > 256 | > 91.6 | 64 (≈ 169 µM) | 15 | 64 (≈ 169 µM) | 64 (≈ 169 µM) | 256 (≈ 676 µM) | > 50.7 | 32 (≈ 84.5 µM) | 0 | > 200 | 30 | 32 (≈ 84.5 µM) | 48.4 (≈ 128 µM)
12 | Clc1ccc(-c2c[nH]cc2C(c2ccc(Cl)c(Cl)c2)n2ccnc2)cc1 (stereo not drawn) | 64 (≈ 159 µM) | 0 | 64 (≈ 159 µM) | 19.3 (≈ 48 µM) | 64 (≈ 159 µM) | 0 | 32 (≈ 79.5 µM) | 64 (≈ 159 µM) | 64 (≈ 159 µM) | 14.4 (≈ 35.8 µM) | 2 (≈ 4.97 µM) | 0 | 91.3 (≈ 227 µM) | 10 | 4 (≈ 9.93 µM) | 32.2 (≈ 80 µM)
13 | Clc1ccc(-c2c[nH]cc2C(c2ccc(Cl)cc2)n2ccnc2)cc1 (stereo not drawn) | 16 (≈ 43.4 µM) | 0 | 32 (≈ 86.9 µM) | 16.3 (≈ 44.3 µM) | 32 (≈ 86.9 µM) | 0 | 16 (≈ 43.4 µM) | 32 (≈ 86.9 µM) | 32 (≈ 86.9 µM) | 12.3 (≈ 33.4 µM) | 16 (≈ 43.4 µM) | 0 | 21.3 (≈ 57.8 µM) | 0 | 8 (≈ 21.7 µM) | 20.2 (≈ 54.9 µM)
